Reference: patent US9101573B2, “Lanthionine synthetase component C-like proteins as molecular targets for preventing and treating diseases and disorders” (VIRGINIA TECH INTELLECTUAL PROPERTIES, INC., priority 2010, dated 2015)

Columns and labels:
[1] = test system: mouse model of DSS-induced colitis, PPAR γ fl/fl Cre−, CD4-Cre+ and Lysozyme M-Cre+ mice; assay: DSS colitis in tissue-specific PPAR γ null mice; assay type: in vivo
Procedure: PPAR γ fl/fl MMTV-Cre− (n=20), tissue-specific PPAR γ fl/fl CD4-Cre+ ([…]) PPAR γ null mice (n=20) and tissue-specific PPAR γ fl/fl Lsozyme M-Cre+ (macrophage-deficient) PPAR γ null mice (n=20) littermates in a C57BL/6J background were generated by using the Cre-lox recombination system as previously described. The mice were housed at the animal facilities at Virginia Tech. in a room maintained at 75° F., with a 12:12 h light-dark cycle starting from 6:00 AM. In each group, 20 mice were randomly divided into two groups: a control group including 10 mice and a NSC61610 treatment groups containing 10 mice respectively. The three treatment groups received 20 mg/kg NSC61610 by orogastric gavage for 6 days. All the mice (n=60) were challenged with drinking water containing 2.5% DSS, 36,000-44,000 molecular weight (ICN Biomedicals, Aurora, Ohio) for 6 days. Mice were weighed on a daily basis and examined for clinical signs of disease associated with colitis (i.e., perianal soiling, rectal bleeding, diarrhea, and piloerection). For the DSS challenge, the disease activity indices and rectal bleeding scores were calculated using a modification of a previously published compounded clinical score. Briefly, disease activity index consisted of a scoring for diarrhea and lethargy (0-3), whereas rectal bleeding consisted of a visual observation of blood in feces and the perianal area (0-4). Mice in the DSS study were euthanized on day 6 of the DSS challenge. On day 6, mice were euthanized by CO2 narcosis followed by secondary thoracotomy and blood was withdrawn from the heart. Colon, spleen, and MLN were scored based on size and macroscopic inflammatory lesions (0-3), excised, and then crushed to produce single-cell suspensions for flow cytometry.

[2] = test system: pandemic 2009 H1N1 influenza A California/09 virus; assay: Pandemic H1N1 influenza virus infection in mice; assay type: in vivo
[3] = test system: PPAR γ; assay: PPAR γ reporter activity assay on 3T3-L1 pre-adipocytes; assay type: cell-based; conditions: 2.5 μM, 24 hours, vs untreated cells
Procedure: 3T3-L1 cells were plated into white, opaque 96-well plates (BD) 24 hours before transfection and grown in DMEM containing 10% fetal bovine serum (FBS) until 70% confluence. Cells were then co-transfected with 0.2 μg pCMX.PPAR γ expression plasmid expression plasmid, 0.2 μg pTK.PPRE3x luciferase reporter plasmid driven by the PPRE-containing Acyl-CoA oxidase promoter and 0.2 μg pRL reporter control using the Lipofectamine 2000 transfection reagent (Invitrogen). After 48 hr incubation at 37° C., cells were then treated in replicates of 8 with NSC61610 2.5 μM or DMSO control and incubated for 24 hr at 37° C. After incubation, cells were harvested in reporter lysis reagent and luciferase activity was determined using the Dual Luciferase II reporter assay system (Promega, Madison, Wis.) in Modulus 96-well luminometer (Turner Biosystems, Sunnyvale, Calif.). All values were normalized to control wells to calculate relative luciferase activity.

[4] = test system: mouse model of DSS-induced colitis; assay: DSS-induced colitis (experimental IBD) in C57BL/6J wild-type mice; assay type: in vivo
Procedure: Six to eight week old C57BL/6J wild-type mice (n=38) were housed at the animal facilities at Virginia Tech. in a room maintained at 75° F., with a 12:12 h light-dark cycle starting from 6:00 AM. Mice were randomly divided into four groups: a control group including 8 mice and the other three NSC61610 treatment groups containing 10 mice each. The three treatment groups received 0.5, 10 or 20 mg/kg NSC61610 by orogastric gavage for 7 days. All the mice were challenged with drinking water containing 2.5% DSS, 36,000-44,000 molecular weight (ICN Biomedicals, Aurora, Ohio) for 7 days. Mice were weighed on a daily basis and examined for clinical signs of disease associated with colitis (i.e., perianal soiling, rectal bleeding, diarrhea, and piloerection). For the DSS challenge, the disease activity indices and rectal bleeding scores were calculated using a modification of a previously published compounded clinical score. Briefly, disease activity index consisted of a scoring for diarrhea and lethargy (0-3), whereas rectal bleeding consisted of a visual observation of blood in feces and the perianal area (0-4). Mice in the DSS study were euthanized on day 7 of the DSS challenge. On day 7, mice were euthanized by CO2 narcosis followed by secondary thoracotomy and blood was withdrawn from the heart. Colon, spleen, and MLN were scored based on size and macroscopic inflammatory lesions (0-3), excised, and then crushed to produce single-cell suspensions for flow cytometry.
Colonic sections were fixed in 10% buffered neutral formalin, later embedded in paraffin, and then sectioned ([…]) and stained with H&E stain for histological examination. Colons were blindly graded with a compounded histological score including the extent of (1) leukocyte infiltration. (2) mucosal thickening, and (3) epithelial cell erosion. The sections were graded with a score of 0-4 for each of the previous categories and data were analyzed as a normalized compounded score.
Total RNA was isolated from colons using the RNA isolation Minikit (Qiagen) according to the manufacturer's instructions. Total RNA ([…]) was used to generate complementary DNA (cDNA) template using the iScript cDNA Synthesis Kit (Bio-Rad, Hercules, Calif.). The total reaction volume was 20 μL with the reaction incubated as follows in an MJ MiniCycler: 5 min at 25° C., 30 min at […], 5 min at 85° C., and hold at 4° C. PCR was performed on the cDNA using Taq DNA polymerase (Invitrogen, Carlsbad, Calif.) and using previously described conditions. Each gene amplicon was purified with the MiniElute PCR Purification Kit (Qiagen) and quantitated on an agarose gel by using a DNA mass ladder (Promega). These purified amplicons were used to optimize real-time (RT)-PCR conditions and to generate standard curves. Primer concentrations and annealing temperatures were optimized for the iCycler iQ system (Bio-Rad) for each set of primers using the system's gradient protocol. PCR efficiencies were maintained between 92 and 105% and correlation coefficients above 0.98 for each primer set during optimization and also during the real-time PCR of sample DNA.
Complementary DNA (cDNA) concentrations for genes of interest were examined by real-time quantitative PCR using an iCycler IQ System and the iQ SYBR green supermix (Bio-Rad). A standard curve was generated for each gene using 10-fold dilutions of purified amplicons starting at 5 pg of cDNA and used later to calculate the starting amount of target cDNA in the unknown samples. SYBR green I is a general double-stranded DNA intercalating dye and may therefore detect non-specific products and primer/dimers in addition to the amplicon of interest. In order to determine the number of products synthesized during the real-time PCR, a melting curve analysis was performed on each product. Real-time PCR was used to measure the starting amount of nucleic acid of each unknown sample of cDNA on the same 96-well plate. […]

[5] = biological target: T1, ligand-binding domain (LBD) of PPAR γ (Homo sapiens, UniProt P37231); assay: Binding of ABA to PPAR γ LBD (unpublished data)
T1 sequence (P37231 238-503 limits assumed): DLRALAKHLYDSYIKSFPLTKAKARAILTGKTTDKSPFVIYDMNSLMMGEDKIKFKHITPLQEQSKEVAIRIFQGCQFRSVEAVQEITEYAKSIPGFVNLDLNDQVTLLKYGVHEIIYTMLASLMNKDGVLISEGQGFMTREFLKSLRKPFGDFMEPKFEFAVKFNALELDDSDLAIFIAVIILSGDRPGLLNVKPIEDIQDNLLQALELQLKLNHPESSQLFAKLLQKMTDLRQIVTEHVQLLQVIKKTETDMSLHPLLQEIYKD

[6] = biological target: T2, LANCL2 (Mus musculus, UniProt Q9JJK2); assay: Western blot binding assay between ABA and LANCL2; conditions: RAW 264.7 macrophages treated with ABA for 20 minutes; re-probing western blot; control without ABA showed no band
T2 construct: Proteins were extracted from Raw 264.7 Macrophage using Radio-Immunoprecipitation Assay buffer; endogenous in cells; host or cells: RAW 264.7 macrophages
T2 sequence (Q9JJK2 1-450): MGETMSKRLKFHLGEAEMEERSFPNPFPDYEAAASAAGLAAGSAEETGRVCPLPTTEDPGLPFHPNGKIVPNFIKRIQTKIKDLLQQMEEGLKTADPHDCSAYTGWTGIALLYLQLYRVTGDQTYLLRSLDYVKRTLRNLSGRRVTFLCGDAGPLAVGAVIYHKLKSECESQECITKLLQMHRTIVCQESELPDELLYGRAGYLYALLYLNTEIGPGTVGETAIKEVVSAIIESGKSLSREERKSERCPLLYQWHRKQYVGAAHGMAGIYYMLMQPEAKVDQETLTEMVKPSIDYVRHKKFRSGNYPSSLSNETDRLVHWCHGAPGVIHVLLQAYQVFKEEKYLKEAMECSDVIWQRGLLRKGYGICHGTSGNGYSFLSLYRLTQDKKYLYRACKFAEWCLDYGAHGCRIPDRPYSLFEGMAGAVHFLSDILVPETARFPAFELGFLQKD
Procedure: RAW 264.7 macrophages were cultured with DMEM (Mediatech, Manassas, Va.) containing 10% fetal bovine serum (FBS) in two flasks and grown until 60-70% confluence. RAW 264.7 macrophages in one flask were treated with abscisic acid (SIGMA-ALDRICH) for 20 minutes. RAW 264.7 macrophages in the other flask without ABA were used as control. Proteins were extracted from Raw 264.7 Macrophage using Radio-Immunoprecipitation Assay buffer (RIPA) (SIGMA-ALDRICH) with inhibitors. 10% SDS-PAGE was applied to analyze the proteins in Bio-Rad mini-gel box running condition. For Western blotting, proteins were electrotransferred to nitrocellulose by standard methods along with the Presicion Plus Kaleidoscope Standard (BIO-RAD). Filters were blocked by 5% BSA in TBS-Tween for 1 hour, followed by incubation with rabbit anti-LANCL2 primary antibody (SIGMA-ALDRICH) in TBS-Tween for 6 hours at room temperature. Goat anti-rabbit horseradish peroxidase-conjugated secondary antibodie (Santa Cruz Biotechnology) was used 1:2,000 in TBS-Tween, and protein bands were detected with Immun-Star™ chemiluminescent substrate (BIO-RAD). […] Donkey anti-rat horseradish peroxidase-conjugated secondary antibodie (Santa Cruz Biotechnology) was used 1:2,000 in TBS-Tween, and protein bands were detected with Immun-Star™ chemiluminescent substrate (BIO-RAD).

[7] = 0.5, 10 and 20 mg/kg, day 7 of DSS
[8] = highest concentration, flow cytometry

## O=C(Nc1cccc(-c2nc3ccccc3[nH]2)c1)c1ccc(C(=O)Nc2cccc(-c3nc4ccccc4[nH]3)c2)cc1 [NSC61610, 1-N,4-N-bis[3-(1H-benzimidazol-2-yl)phenyl]benzene-1,4-dicarboxamide]
[1]; 20 mg/kg BW for 6 days during DSS challenge, vs untreated control mice
  disease activity index: significantly reduced
[1]; PPAR γ-expressing mice with DSS colitis, 20 mg/kg
  macroscopic inflammatory lesions: significantly reduced
[1]; T cell-specific PPAR γ null mice with DSS colitis, 20 mg/kg
  macroscopic inflammatory lesions: significantly reduced
[1]; macrophage-specific PPAR γ null mice, 20 mg/kg
  effect on IBD in MLNs and spleens: abrogated
[2]; day 13 post-infection, irrespective of genotype
  antigen-specific proliferation of splenocytes stimulated ex vivo with live virus: higher
[2]; infected mice, 20 mg/kg
  extent of lung congestion and hyperemia (macroscopic and histological score): reduced
[2]; infected mice, 20 mg/kg orogastric gavage daily, vs untreated infected mice
  influenza-related weight loss: lower weight loss
[2]; infected treated mice, by day 13
  body weight: began to gain weight
[3]
  PPAR γ expression (dual luciferase reporter): significantly elevated
[4]; 0.5, 10 and 20 mg/kg BW orogastric gavage, 7 days, 2.5% DSS, vs untreated control mice
  disease activity index (DAI): significantly reduced
[4]; [7]
  gross inflammation in MLN: significantly reduced
  gross inflammation in colon: significantly reduced
  gross inflammation in spleen: significantly reduced
[4]; flow cytometry
  numbers of mesenteric lymph node (MLN) Treg: No effect
  percentage of F4/80+CD11b+ macrophages in the colonic lamina propria: reduced
  percentage of Treg cells in blood: significantly increased
  percentage of Treg cells in colon: significantly increased
  percentage of Treg cells in spleen: significantly increased
[4]; [8]
  percentage of CD4+ IL10+ T cells in MLN: significantly increased
  percentage of CD4+ IL10+ T cells in blood: significantly increased
  percentage of CD4+ IL10+ T cells in colon: significantly increased
  percentage of CD4+ IL10+ T cells in spleen: significantly increased
[4]; maximum dose 20 mg/kg
  PPAR γ gene expression in colon: enhanced PPAR γ gene expression significantly
[4]; mice with DSS colitis
  epithelial erosion (colon histology): significantly reduced
  leukocyte infiltration (colon histology): significantly reduced
  mucosal thickening (colon histology): significantly reduced
[4]; real-time quantitative PCR
  colonic expression of IL-6: significantly lowered
  colonic expression of MCP-1: significantly lowered
  colonic expression of TNF-α: significantly lowered
[4]; real-time quantitative PCR, vs control mice
  PPAR γ gene expression in colon: increased

## CC1=CC(=O)CC(C)(C)[C@@]1(O)/C=C/C(C)=C\C(=O)O [abscisic acid, [S-(Z,E)]-5-(1-Hydroxy-2,6,6-trimethyl-4-oxo-2-cyclohexen-1-yl)-3-methyl-2,4-pentanedienoic acid]
[5]
  direct binding to the LBD of PPAR γ: does not bind directly
[6]
  band with anti-ABA antibody at the LANCL2 location on the membrane: clear band
